The record followed here is patent US5422341A, “Motilin-like polypeptides with gastrointestinal motor stimulating activity” (Ohmeda Pharmaceutical Products Division Inc., priority 1993, dated 1995).

Where “and” joins values, the source holds several entries; their conditions need not be identical. Equal entries are not always repeated. Structures can show the parent of a compound that is named as a salt. Square brackets hold non-standard residues; d marks the D form. Peptide text beside a SMILES is read from it. * marks the point of attachment. X3 = C#CC[N+](C)(C)[C@@H](Cc1ccccc1)C(=O)*; X1 = C[N+](C)(C)[C@@H](Cc1ccccc1)C(=O)*; NMe2Phe = CN(C)[C@@H](Cc1ccccc1)C(=O)*; X2 = C#CCN(C)[C@@H](Cc1ccccc1)C(=O)*; X4 = CCN(CC)[C@@H](Cc1ccccc1)C(=O)*; NMeF = CN[C@@H](Cc1ccccc1)C(=O)O; Cha = N[C@@H](CC1CCCCC1)C(=O)O; dOrn = NCCC[C@@H](N)C(=O)O

In one assay the target is T1, motilin receptor (Oryctolagus cuniculus, UniProt G1T803).
T1 construct: from tissue; host or cells: rabbit antral smooth muscle membranes
T1 sequence (G1T803 1-400): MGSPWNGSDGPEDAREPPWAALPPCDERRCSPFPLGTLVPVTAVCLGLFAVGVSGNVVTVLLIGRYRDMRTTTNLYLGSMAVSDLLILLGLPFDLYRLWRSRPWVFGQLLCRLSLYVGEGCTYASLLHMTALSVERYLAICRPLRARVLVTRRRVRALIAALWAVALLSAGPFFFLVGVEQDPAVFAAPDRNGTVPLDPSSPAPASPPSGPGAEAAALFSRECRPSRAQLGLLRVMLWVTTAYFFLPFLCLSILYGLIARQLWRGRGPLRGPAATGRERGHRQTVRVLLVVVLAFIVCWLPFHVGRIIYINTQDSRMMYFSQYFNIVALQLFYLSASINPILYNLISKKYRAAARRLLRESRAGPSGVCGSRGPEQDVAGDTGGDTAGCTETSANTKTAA
As to the kind of experiment: Determination of motilin receptor binding affinity (displacement of [125I-Tyr7, Nle13]motilin(porcine)). The note with it: negative logarithm of the concentration displacing 50% of [125I-Tyr7, Nle13]motilin(porcine) from rabbit antral smooth muscle membranes; read-out: pIC50 (converted). Details: species or system rabbit. As for the experimental part:
The motilin receptor binding affinity of the peptides of this invention was determined by using the general procedure of Bormans, Peelers and Vantrappen, Regul. […] Fitting was performed using the iterative least-squares procedure of the SAS-software package (SAS Institute, Inc., Cary, N.C., USA).

Assay [1] addresses segments of rabbit duodenum (Oryctolagus cuniculus, UniProt G1T803). As to the kind of experiment: Rabbit duodenal smooth muscle strip tissue bath assay. The class given is cell-based. The note with it: negative logarithm of the dose giving 50% of the maximal response to motilin; isotonic contraction of rabbit duodenum segments. As for the experimental part:
The contractile response of segments of rabbit duodenum was determined isotonically in the tissue bath according to the procedure of Depoortere et at., J. Gastrointestinal Motility, 1, 150-159 (1989). The experimental protocol consisted of an equilibration period of 1 hour; a challenge with 10^-4 M acetylcholine followed by a wash-out period; a cumulative dose-response curve of a compound with, at the end, the addition of 10^-7 M motilin; and finally 10^-4 M acetylcholine. If the final response to 10^-4 M acetylcholine differed by more than 5% from the initial response, the results were discarded. The compounds were tested in the concentration range 10^-11 to 10^-4 M. The point corresponding to 50% of the maximal response to motilin (Emax) was determined by fitting the equation E=Emax (1+EC50 /[L]) through the data points. […] The dose giving 50% of the response is expressed using its negative logarithm (pEC50).

Chain of segments of rabbit duodenum (G1T803 1-400): as above

For the compound `CC[C@H](C)[C@H](NC(=O)[C@@H]1CCCN1C(=O)[C@@H](NC(=O)[C@H](Cc1ccccc1)N(C)C)C(C)C)C(=O)N[C@@H](Cc1ccccc1)C(=O)N[C@H](C(=O)N[C@@H](Cc1ccc(O)cc1)C(=O)NCC(=O)N[C@@H](CCC(=O)O)C(=O)N[C@@H](CC(C)C)C(=O)N[C@@H](C)C(=O)N[C@H](CCCNC(=N)N)C(=O)N[C@@H](CC(C)C)C(=O)N[C@@H](CCC(N)=O)C(N)=O)[C@@H](C)O` (NMe2Phe-VPIFTYGELA[dR]LQ-NH2), on motilin receptor, the IC50 is 1.95 nM. In assay [1], the pEC50 came out at 7.76.

On to `C#CCN(C)[C@@H](Cc1ccccc1)C(=O)N[C@H](C(=O)N1CCC[C@H]1C(=O)N[C@H](C(=O)N[C@@H](Cc1ccccc1)C(=O)N[C@H](C(=O)N[C@@H](Cc1ccc(O)cc1)C(=O)NCC(=O)N[C@@H](CCC(=O)O)C(=O)N[C@@H](CC(C)C)C(=O)N[C@@H](CCC(N)=O)C(=O)N[C@@H](CCCNC(=N)N)C(=O)N[C@@H](CC(C)C)C(=O)N[C@@H](CCC(N)=O)C(N)=O)[C@@H](C)O)[C@@H](C)CC)C(C)C` (X2-VPIFTYGELQRLQ-NH2), for which the IC50 at motilin receptor was 2 nM. Besides, the pEC50 in assay [1] came out at 7.57.

`CC[C@H](C)[C@H](NC(=O)[C@@H]1CCCN1C(=O)[C@@H](NC(=O)[C@@H](N)Cc1ccccc1)C(C)C)C(=O)N[C@@H](Cc1ccccc1)C(=O)N[C@H](C(=O)N[C@@H](Cc1ccc(O)cc1)C(=O)NCC(=O)N[C@@H](CCC(=O)O)C(=O)N[C@@H](CC(C)C)C(=O)N[C@@H](CCC(N)=O)C(=O)N[C@H](CCCNC(=N)N)C(=O)N[C@@H](CC(C)C)C(=O)N[C@@H](CCC(N)=O)C(=O)N[C@@H](CCC(=O)O)C(=O)N[C@@H](CCCCN)C(=O)N[C@@H](CCC(=O)O)C(=O)N[C@@H](CCCNC(=N)N)C(=O)N[C@@H](CC(N)=O)C(=O)N[C@@H](CCCCN)C(=O)NCC(=O)N[C@@H](CCC(N)=O)C(=O)O)[C@@H](C)O` [[D-Arg^12, Leu^13]pMOT(1-22)]: the IC50 on motilin receptor is 1.66 nM. The negative-log EC50 (pEC50) in assay [1] turned out to be 7.67.

For the compound `CC[C@H](C)[C@H](NC(=O)[C@@H]1CCCN1C(=O)[C@@H](NC(=O)[C@H](Cc1ccccc1)N(CC)CC)C(C)C)C(=O)N[C@@H](Cc1ccccc1)C(=O)N[C@H](C(=O)N[C@@H](Cc1ccc(O)cc1)C(=O)NCC(=O)N[C@@H](CCC(=O)O)C(=O)N[C@@H](CC(C)C)C(=O)N[C@@H](CCC(N)=O)C(=O)N[C@@H](CCCNC(=N)N)C(=O)N[C@@H](CC(C)C)C(=O)N[C@@H](CCC(N)=O)C(N)=O)[C@@H](C)O` [[Et2 Phe^1, Leu^13]pMOT(1-14) amide] (X4-VPIFTYGELQRLQ-NH2), on motilin receptor, the IC50 is 3.89 nM. The same compound returned a negative-log EC50 (pEC50) in assay [1] of 7.54.

On to `CC[C@H](C)[C@H](NC(=O)[C@@H]1CCCN1C(=O)[C@@H](NC(=O)[C@@H](N)Cc1ccccc1)C(C)C)C(=O)N[C@@H](Cc1ccccc1)C(=O)N[C@H](C(=O)N[C@@H](Cc1ccc(O)cc1)C(=O)NCC(=O)N[C@@H](CCC(=O)O)C(=O)N[C@@H](CC(C)C)C(=O)N[C@@H](CCC(N)=O)C(=O)N[C@H](CCCNC(=N)N)C(=O)N[C@@H](CC(C)C)C(=O)N[C@@H](CCC(N)=O)C(=O)O)[C@@H](C)O` [[D-Arg^13, Leu^13]pMOT(1-14), [12-D-Arginine, 13-leucine]motilin-(1-14)-peptide (Porcine) Bis-trifiuoroacetate Salt] (H-FVPIFTYGELQ[dR]LQ-OH), for which the IC50 at motilin receptor is 0.977 nM. Besides, the pEC50 in assay [1] turned out to be 7.74.

Turning to `CC[C@H](C)[C@H](NC(=O)[C@@H]1CCCN1C(=O)[C@@H](NC(=O)[C@@H](N)Cc1ccccc1)C(C)C)C(=O)N[C@@H](CC1CCCCC1)C(=O)N[C@H](C(=O)N[C@@H](Cc1ccc(O)cc1)C(=O)NCC(=O)N[C@@H](CCC(=O)O)C(=O)N[C@@H](CC(C)C)C(=O)N[C@@H](CCC(N)=O)C(=O)N[C@H](CCCNC(=N)N)C(=O)N[C@@H](CC(C)C)C(=O)N[C@@H](CCC(N)=O)C(N)=O)[C@@H](C)O` [H-Phe-Val-Pro-Ile-Cha-Thr-Tyr-Gly-Glu-Leu-Gln-D-Arg-Leu-Gln-NH2] (H-FVPI[Cha]TYGELQ[dR]LQ-NH2), the IC50 at motilin receptor was 6.76 nM. In assay [1], this compound gave a pEC50 of 7.30.

As to `C#CC[N+](C)(C)[C@@H](Cc1ccccc1)C(=O)N[C@H](C(=O)N1CCC[C@H]1C(=O)N[C@H](C(=O)N[C@@H](Cc1ccccc1)C(=O)N[C@H](C(=O)N[C@@H](Cc1ccc(O)cc1)C(=O)NCC(=O)N[C@@H](CCC(=O)O)C(=O)N[C@@H](CC(C)C)C(=O)N[C@@H](CCC(N)=O)C(=O)N[C@@H](CCCNC(=N)N)C(=O)N[C@@H](CC(C)C)C(=O)N[C@@H](CCC(N)=O)C(N)=O)[C@@H](C)O)[C@@H](C)CC)C(C)C` (X3-VPIFTYGELQRLQ-NH2), the IC50 on motilin receptor is 2.14 nM. For the same compound, in assay [1], the pEC50 came to 7.65.

On to `CC[C@H](C)[C@H](NC(=O)[C@@H]1CCCN1C(=O)[C@@H](NC(=O)[C@H](Cc1ccccc1)[N+](C)(C)C)C(C)C)C(=O)N[C@@H](Cc1ccccc1)C(=O)N[C@H](C(=O)N[C@@H](Cc1ccc(O)cc1)C(=O)NCC(=O)N[C@@H](CCC(=O)O)C(=O)N[C@@H](CC(C)C)C(=O)N[C@@H](C)C(=O)N[C@H](CCCNC(=N)N)C(=O)N[C@@H](CC(C)C)C(=O)N[C@H](CCC(N)=O)C(N)=O)[C@@H](C)O` (X1-VPIFTYGELA[dR]L[dQ]-NH2), for which the IC50 on motilin receptor was 2.45 nM. In assay [1], the pEC50 is recorded as 7.25.

`CC[C@H](C)[C@H](NC(=O)[C@H](C)NC(=O)[C@@H](NC(=O)[C@H](Cc1ccccc1)NC)C(C)C)C(=O)N[C@@H](Cc1ccccc1)C(=O)N[C@H](C(=O)N[C@@H](Cc1ccc(O)cc1)C(=O)NCC(=O)N[C@@H](CCC(=O)O)C(=O)N[C@@H](CC(C)C)C(=O)N[C@@H](C)C(=O)N[C@H](CCCNC(=N)N)C(=O)N[C@@H](CC(C)C)C(=O)N[C@H](CCC(N)=O)C(N)=O)[C@@H](C)O` (H-[NMeF]VAIFTYGELA[dR]L[dQ]-NH2): the IC50 on motilin receptor is 0.724 nM. The compound further showed a pEC50 in assay [1] of 7.32.

On to `CC[C@H](C)[C@H](NC(=O)[C@@H]1CCCN1C(=O)[C@@H](NC(=O)[C@@H](N)Cc1ccccc1)C(C)C)C(=O)N[C@@H](Cc1ccccc1)C(=O)N[C@H](C(=O)N[C@@H](Cc1ccc(O)cc1)C(=O)NCC(=O)N[C@@H](CCC(=O)O)C(=O)N[C@@H](CC(C)C)C(=O)N[C@@H](CCC(N)=O)C(=O)N[C@H](CCCN)C(=O)N[C@@H](CC(C)C)C(=O)N[C@@H](CCC(N)=O)C(=O)O)[C@@H](C)O` [[D-Orn^12, Leu^13]pMOT(1-14)] (H-FVPIFTYGELQ[dOrn]LQ-OH), for which the IC50 at motilin receptor was 4.27 nM. For the same compound, the pEC50 in assay [1] is 6.83.

`CC[C@H](C)[C@H](NC(=O)[C@H](C)NC(=O)[C@@H](NC(=O)[C@H](Cc1ccccc1)N(C)C)C(C)C)C(=O)N[C@@H](Cc1ccccc1)C(=O)N[C@H](C(=O)N[C@@H](Cc1ccc(O)cc1)C(=O)NCC(=O)N[C@@H](CCC(=O)O)C(=O)N[C@@H](CC(C)C)C(=O)N[C@@H](C)C(=O)N[C@H](CCCNC(=N)N)C(=O)N[C@@H](CC(C)C)C(=O)N[C@H](CCCCN)C(N)=O)[C@@H](C)O` (NMe2Phe-VAIFTYGELA[dR]L[dK]-NH2): at motilin receptor, the IC50 is 4.07 nM. In assay [1], this compound showed a pEC50 of 7.73.

As for `CC[C@H](C)[C@H](NC(=O)[C@@H]1CCCN1C(=O)[C@@H](NC(=O)[C@H](Cc1ccccc1)[N+](C)(C)C)C(C)C)C(=O)N[C@@H](Cc1ccccc1)C(=O)N[C@H](C(=O)N[C@@H](Cc1ccc(O)cc1)C(=O)NCC(=O)N[C@@H](CCC(=O)O)C(=O)N[C@@H](CC(C)C)C(=O)N[C@@H](CCC(N)=O)C(=O)N[C@@H](CCCNC(=N)N)C(=O)N[C@@H](CC(C)C)C(=O)N[C@@H](CCC(N)=O)C(N)=O)[C@@H](C)O` (X1-VPIFTYGELQRLQ-NH2), the IC50 at motilin receptor is 2.69 nM. The compound further displayed a negative-log EC50 (pEC50) in assay [1] of 7.48.

For the compound `CC[C@H](C)[C@H](NC(=O)[C@@H]1CCCN1C(=O)[C@@H](NC(=O)[C@H](Cc1ccccc1)[N+](C)(C)C)C(C)C)C(=O)N[C@@H](Cc1ccccc1)C(=O)N[C@H](C(=O)N[C@@H](Cc1ccc(O)cc1)C(=O)NCC(=O)N[C@@H](CCC(=O)O)C(=O)N[C@@H](CC(C)C)C(=O)N[C@@H](CCC(N)=O)C(=O)N[C@H](CCCNC(=N)N)C(=O)N[C@@H](CC(C)C)C(=O)N[C@@H](CCC(N)=O)C(=O)O)[C@@H](C)O` (X1-VPIFTYGELQ[dR]LQ-OH), the IC50 on motilin receptor is 3.55 nM and 2.14 nM. For the same compound, in assay [1], the negative logarithm of the EC50 (pEC50) is on record as 7.52.

As to `CC[C@H](C)[C@H](NC(=O)[C@@H]1CCCN1C(=O)[C@@H](NC(=O)[C@@H](N)Cc1ccccc1)C(C)C)C(=O)N[C@@H](Cc1ccccc1)C(=O)N[C@H](C(=O)N[C@@H](Cc1ccc(O)cc1)C(=O)NCC(=O)N[C@@H](CCC(=O)O)C(=O)N[C@@H](CC(C)C)C(=O)N[C@@H](CCC(N)=O)C(=O)N[C@H](CC(N)=O)C(=O)N[C@@H](CC(C)C)C(=O)N[C@@H](CCC(N)=O)C(=O)O)[C@@H](C)O` [[D-Asn^12, Leu^13]pMOT(1-14)] (H-FVPIFTYGELQ[dN]LQ-OH), the IC50 at motilin receptor is 7.59 nM. In assay [1], the negative logarithm of the EC50 (pEC50) turned out to be 6.82.

Consider `CC[C@H](C)[C@H](NC(=O)[C@H](C)NC(=O)[C@@H](NC(=O)[C@@H](N)Cc1ccccc1)C(C)C)C(=O)N[C@@H](Cc1ccccc1)C(=O)N[C@H](C(=O)N[C@@H](Cc1ccc(O)cc1)C(=O)NCC(=O)N[C@@H](CCC(=O)O)C(=O)N[C@@H](CC(C)C)C(=O)N[C@@H](CCC(N)=O)C(=O)N[C@H](CCCNC(=N)N)C(=O)N[C@@H](CC(C)C)C(=O)N[C@@H](CCC(N)=O)C(=O)O)[C@@H](C)O` [[Ala^3, D-Arg^ 12, Leu^13]pMOT(1-14)] (H-FVAIFTYGELQ[dR]LQ-OH), for which the IC50 at motilin receptor is 2.14 nM. The negative logarithm of the EC50 (pEC50) in assay [1] turned out to be 7.71.
